Patent US11617740B2, “Chemical inhibitors of Mycobacterium tuberculosis DosRST signaling and persistence” (priority 2017, dated 2023)
Several values for one entry are separate records, joined by “and”; a condition that tells them apart may be missing. Equal entries are not always repeated. Entries after “also recorded” stand apart in the source; their conditions may differ.

Tests used:
WT DosS heme [1] = biological target: T1, WT DosS heme (Mycobacterium tuberculosis, UniProt P9WGK3); test: UV-visible spectroscopy of DosS heme; type: biochemical; conditions: for position of DosS Soret peak after treatment: DTN-reduced DosS (430 nm), 100 μM
DosR regulon = type: cell-based; conditions: ΔdosR mutant, 40 μM, >2-fold; q<0.05
DosS(E87L) = DosS(E87L) (Mycobacterium tuberculosis, UniProt P9WGK3, E87L); type: biochemical
DosS(G117L) = DosS(G117L) (Mycobacterium tuberculosis, UniProt P9WGK3, G117L); type: biochemical
WT DosS heme [2] = biological target: T1, WT DosS heme; conditions: identical conditions, gradual shift to oxidized state; cited from earlier work

In the case of `[C-]#[O+]` [CO, carbon monoxide, reference compound], the “position of DosS Soret peak after treatment” value (WT DosS heme [1]) is reported as 422 nm.
For `[C-]#[O+].[C-]#[O+].[C-]#[O+].[C-]#[O+].[C-]#[O+].[C-]#[O+].[Cl][Ru][Cl].[Cl][Ru][Cl]` [CORM-2, tricarbonylchlororuthenium(II) dimer, reference compound], the “position of DosS Soret peak after treatment” value (WT DosS heme [1]) was 422 nm.
For `CN(C)CCCN1C(=O)c2cccc3c(Br)ccc(c23)C1=O` [HC104A], the “genes downregulated in CDC1551(ΔdosR) background” value (DosR regulon) was 171 genes and the “effect on DosS UV-visible spectrum / heme redox” value (WT DosS heme [1]; DTN-reduced DosS, 400 μM HC104A) was “no change; also recorded: inhibitory activity was not observed; also recorded: no impact on the position of the Soret peak”.
For `O=C(Nc1ccno1)Nc1ccc(Cl)cc1Cl` [HC106A], the “change of DosS E87L UV-visible spectrum” value (DosS(E87L)) was “no change on overall spectrum”, the “position of DosS(E87L) Soret peak after treatment” value (DosS(E87L)) was 422 nm and the “genes downregulated in CDC1551(ΔdosR) background” value (DosR regulon) was 51 genes. The “position of DosS Soret peak after treatment” value (WT DosS heme [1]) was 422 nm and ~420 nm and the “change of DosS(G117L) UV-visible spectrum” value (DosS(G117L)) was “no change to the overall spectrum; also recorded: did not change; also recorded: promoted HC106A resistance”.
For `C[C@@H]1CC[C@H]2[C@@H](C)C(=O)O[C@@H]3O[C@@]4(C)CC[C@@H]1[C@]32OO4` [artemisinin, reference compound], the “position of DosS Soret peak after treatment (earlier work)” value (WT DosS heme [2]) is listed as 403 nm.
